Our source for the IC50 values is patent US10710986B2, “PD-1/PD-L1 inhibitors” (Gilead Sciences, Inc., priority 2018, dated 2020).

pIC50: −log10 of the molar value.

PD-1/PD-L1, sequence (Q9NZQ7 19-238): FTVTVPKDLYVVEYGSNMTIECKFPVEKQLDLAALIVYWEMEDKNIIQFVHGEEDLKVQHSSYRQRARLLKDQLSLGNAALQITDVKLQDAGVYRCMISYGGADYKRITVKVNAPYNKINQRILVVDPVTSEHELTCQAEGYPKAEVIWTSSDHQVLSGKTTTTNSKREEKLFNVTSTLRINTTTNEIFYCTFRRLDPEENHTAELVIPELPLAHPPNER

The experiment addresses PD-1/PD-L1 (Homo sapiens (Human), UniProt Q9NZQ7). Description: PD-1/PD-L1 biochemical protein-protein interaction assay (ALPHA). The following applies: 0.3 nM His tagged PD-L1, 2.5 nM biotinylated Fc-PD-1, 60 minutes at 25° C., read-out: IC50 PD-L1-PD1. As to the method:
Binding of the protein pairs is measured using a bead based Amplified Luminescent Proximity Homogeneous Assay (ALPHA) platform. Binding of each protein pair results in proximity of the donor and acceptor beads which leads to an increase in ALPHA signal. […] Assays are performed in 25 mM Hepes (pH 7.4), 150 mM NaCl, 3.4 mM EDTA, 0.005% Tween 20, and 0.01% BSA. […] After an assay reaction time of 60 minutes at 25° C., binding was measured with addition of 20 μg/mL ALPHA assay acceptor beads (anti-His coated) and 20 µg/mL ALPHA assay donor beads (streptavidin coated). IC50 values were calculated from the fit of the dose-response curves to a four-parameter equation.
Take `COc1nc(-c2cccc(-c3cccc(-c4cnc(CN5CC6CC6(CO)C5)c(OC)n4)c3Cl)c2Cl)cnc1CNC[C@@H]1CCC(=O)N1` (stereo partly shown) [compound 52]: the pIC50 is 9.77. The value for `COc1nc(-c2cccc(-c3cccc(-c4cnc(CN5CC6CC5(CO)C6)c(OC)n4)c3Cl)c2Cl)cnc1CNC[C@@H]1CCC(=O)N1` [compound 53] was 10.00. Turning to `COc1nc(-c2cccc(-c3cccc(-c4cnc(CNC[C@H]5CCC[C@@H]5O)c(OC)n4)c3Cl)c2Cl)cnc1CNC[C@@H]1CCC(=O)N1` [compound 54], the pIC50 was 9.74.

Turning to `COc1nc(-c2cccc(-c3cccc(-c4cnc(CNC[C@@H]5CCC(=O)N5)c(OC)n4)c3Cl)c2Cl)cnc1CNCC1CCCCO1` (stereo partly shown) [compound 55], the pIC50 is 9.59. On to `COc1nc(-c2cccc(-c3cccc(-c4cnc(CNC[C@@H]5CCC(=O)N5)c(OC)n4)c3Cl)c2Cl)cnc1CNCC1CCC(C(N)=O)O1` (stereo partly shown) [compound 56], for which the pIC50 was 10.05.

Consider `CNc1nc(-c2cccc(-c3cccc(-c4cnc(CNC[C@H]5C[C@H](O)C5)c(NC)n4)c3Cl)c2Cl)cnc1CNC[C@H]1C[C@H](O)C1` [compound 57], for which the negative-log IC50 (pIC50) was 8.06. For `CNc1nc(-c2cccc(-c3cccc(-c4cnc(CN)c(NC)n4)c3Cl)c2Cl)cnc1CN` [compound 58], the pIC50 was 8.17.

On to `CNc1nc(-c2cccc(-c3cccc(-c4cnc(CN5CC6(C5)CN(C(C)=O)C6)c(OC)n4)c3Cl)c2Cl)cnc1CN1CC2(C1)CN(C(C)=O)C2` [compound 59], for which the pIC50 was 10.00. For `CNc1nc(-c2cccc(-c3cccc(-c4cnc(CN5CC(O)C5)c(OC)n4)c3Cl)c2Cl)cnc1CN1CC(O)C1` [compound 60], the pIC50 was 9.85. As for `CNc1nc(-c2cccc(-c3cccc(-c4cnc(CN5CC6(CNC(=O)C6)C5)c(OC)n4)c3Cl)c2Cl)cnc1CN1CC2(CNC(=O)C2)C1` [compound 61], the pIC50 is 10.15. With `CNc1nc(-c2cccc(-c3cccc(-c4cnc(CN5CC6(CCC(=O)N6)C5)c(OC)n4)c3Cl)c2Cl)cnc1CN1CC2(CCC(=O)N2)C1` [compound 62], the pIC50 was 9.80. `CNc1nc(-c2cccc(-c3cccc(-c4cnc(CNC[C@@H]5CCC(=O)N5)c(OC)n4)c3Cl)c2Cl)cnc1CNC[C@@H]1CCC(=O)N1` [compound 63]: the pIC50 was 8.52. The value for `CCNc1nc(-c2cccc(-c3cccc(-c4cnc(CN5CC6(C5)CN(C(C)=O)C6)c(NCC)n4)c3Cl)c2Cl)cnc1CN1CC2(C1)CN(C(C)=O)C2` [compound 65] was 9.78; that for `CCNc1nc(-c2cccc(-c3cccc(-c4cnc(CN5CC(O)C5)c(NCC)n4)c3Cl)c2Cl)cnc1CN1CC(O)C1` [compound 66] was 9.21; that for `CCNc1nc(-c2cccc(-c3cccc(-c4cnc(CN5CC6(CNC(=O)C6)C5)c(NCC)n4)c3Cl)c2Cl)cnc1CN1CC2(CNC(=O)C2)C1` [compound 67] was 9.53.

Regarding `CCNc1nc(-c2cccc(-c3cccc(-c4cnc(CN5CC6(CCC(=O)N6)C5)c(NCC)n4)c3Cl)c2Cl)cnc1CN1CC2(CCC(=O)N2)C1` [compound 68], the pIC50 is 9.39. In the case of `CNc1nc(-c2cccc(-c3cccc(-c4cnc(CN5CC(F)C5)c(NC)n4)c3Cl)c2Cl)cnc1CN1CC(F)C1` [compound 69] it was 8.58; in that of `CNc1nc(-c2cccc(-c3cccc(-c4cnc(CN5CCCC5)c(NC)n4)c3Cl)c2Cl)cnc1CN1CCCC1` [compound 70], 9.11; in that of `CNc1nc(-c2cccc(-c3cccc(-c4cnc(CN(C)C)c(NC)n4)c3Cl)c2Cl)cnc1CN(C)C` [compound 71], 10.09. The value for `CNc1nc(-c2cccc(-c3cccc(-c4cnc(CN5CCC5)c(NC)n4)c3Cl)c2Cl)cnc1CN1CCC1` [compound 72] was 9.70; that for `CNCc1ncc(-c2cccc(-c3cccc(-c4cnc(CN5CCC5)c(NC)n4)c3Cl)c2Cl)nc1NC` [compound 73] was 9.43. Regarding `CNCc1ncc(-c2cccc(-c3cccc(-c4cnc(CNC)c(NC)n4)c3Cl)c2Cl)nc1NC` [compound 74], the pIC50 is 8.87.
